# Data published in PubChem BioAssay (NCI).
#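 Values below derive from 48-hour exposures of cells grown in 96-well plates, with endpoints linearly interpolated between the two concentrations bracketing the appropriate inhibition level. GI50 marks 50% less growth. TGI denotes the concentration required for complete inhibition of growth.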
# Experiments:
# Test in all cases: NCI anticancer screen, dose series, 48 h
# MALME-3M melanoma = tested on: MALME-3M melanoma
# HCT-15 colon = tested on: HCT-15 colon
# BT-549 breast = tested on: BT-549 breast
# T-47D breast = tested on: T-47D breast
# HOP-62 NSCLC = tested on: HOP-62 NSCLC
# K-562 leukemia = tested on: K-562 leukemia
# MOLT-4 leukemia = tested on: MOLT-4 leukemia
# MDA-MB-435 = tested on: MDA-MB-435
# NCI/ADR-RES ovarian = tested on: NCI/ADR-RES ovarian
# SK-OV-3 ovarian = tested on: SK-OV-3 ovarian
# NCI-H522 lung = tested on: NCI-H522 lung
# U251 CNS = tested on: U251 CNS
# SNB-75 CNS = tested on: SNB-75 CNS
# RXF 393 renal = tested on: RXF 393 renal
# TK-10 renal = tested on: TK-10 renal
# OVCAR-3 ovarian = tested on: OVCAR-3 ovarian
# LOX IMVI melanoma = tested on: LOX IMVI melanoma
# MDA-MB-231 breast = tested on: MDA-MB-231 breast
# M14 melanoma = tested on: M14 melanoma
# A549 NSCLC = tested on: A549 NSCLC
# CCRF-CEM leukemia = tested on: CCRF-CEM leukemia
# HL-60(TB) leukemia = tested on: HL-60(TB) leukemia
# SR leukemia = tested on: SR leukemia
# IGROV1 ovarian = tested on: IGROV1 ovarian
# SK-MEL-2 melanoma = tested on: SK-MEL-2 melanoma
# OVCAR-5 ovarian = tested on: OVCAR-5 ovarian
# DU-145 prostate = tested on: DU-145 prostate
# HCC-2998 colon = tested on: HCC-2998 colon
# SN12C renal = tested on: SN12C renal
# NCI-H460 lung = tested on: NCI-H460 lung
# KM12 colon = tested on: KM12 colon
# SF-539 CNS = tested on: SF-539 CNS
# HS 578T breast = tested on: HS 578T breast
# SF-295 CNS = tested on: SF-295 CNS
# SF-268 CNS = tested on: SF-268 CNS
# HT29 colon = tested on: HT29 colon
# UACC-62 melanoma = tested on: UACC-62 melanoma
# UO-31 renal = tested on: UO-31 renal
# PC-3 prostate = tested on: PC-3 prostate
# SK-MEL-5 melanoma = tested on: SK-MEL-5 melanoma
# SW-620 colon = tested on: SW-620 colon
# A498 renal = tested on: A498 renal
# CAKI-1 renal = tested on: CAKI-1 renal
# 786-0 renal = tested on: 786-0 renal
# COLO 205 colon = tested on: COLO 205 colon
# MCF7 breast = tested on: MCF7 breast
# HCT-116 colon = tested on: HCT-116 colon
# ACHN renal = tested on: ACHN renal
# UACC-257 melanoma = tested on: UACC-257 melanoma
# NCI-H23 lung = tested on: NCI-H23 lung
# SNB-19 CNS = tested on: SNB-19 CNS
# RPMI-8226 leukemia = tested on: RPMI-8226 leukemia
# SK-MEL-28 melanoma = tested on: SK-MEL-28 melanoma
# OVCAR-4 ovarian = tested on: OVCAR-4 ovarian
# NCI-H226 lung = tested on: NCI-H226 lung
smiles,measurement,setting,value
C/C(=N\Nc1cc(C)c2cc(C)ccc2n1)c1ccccn1,GI50,MALME-3M melanoma,123 nM
same,TGI,MALME-3M melanoma,1270 nM
same,TGI,HCT-15 colon,1930 nM
same,GI50,BT-549 breast,276 nM
same,TGI,BT-549 breast,17200 nM
same,GI50,T-47D breast,< 46.4 nM
same,TGI,T-47D breast,1460 nM
same,GI50,HOP-62 NSCLC,55 nM
same,TGI,HOP-62 NSCLC,1410 nM
same,GI50,K-562 leukemia,95 nM
same,TGI,K-562 leukemia,1430 nM
same,TGI,MOLT-4 leukemia,361 nM
same,GI50,MDA-MB-435,145 nM
same,TGI,MDA-MB-435,1790 nM
same,GI50,NCI/ADR-RES ovarian,66.6 nM
same,TGI,NCI/ADR-RES ovarian,3850 nM
same,GI50,SK-OV-3 ovarian,74.3 nM
same,TGI,SK-OV-3 ovarian,7210 nM
same,GI50,NCI-H522 lung,< 47.2 nM
same,TGI,NCI-H522 lung,124 nM
same,GI50,U251 CNS,< 39.3 nM
same,TGI,U251 CNS,1160 nM
same,GI50,SNB-75 CNS,205 nM
same,TGI,SNB-75 CNS,2180 nM
same,GI50,RXF 393 renal,113 nM
same,TGI,RXF 393 renal,1530 nM
same,TGI,TK-10 renal,2820 nM
same,GI50,OVCAR-3 ovarian,< 20.6 nM
same,TGI,OVCAR-3 ovarian,1310 nM
same,GI50,LOX IMVI melanoma,74.4 nM
same,TGI,LOX IMVI melanoma,1230 nM
same,GI50,MDA-MB-231 breast,< 30.3 nM
same,TGI,MDA-MB-231 breast,1540 nM
same,GI50,M14 melanoma,68.4 nM
same,TGI,M14 melanoma,1320 nM
same,GI50,A549 NSCLC,< 49 nM
same,TGI,A549 NSCLC,1140 nM
same,GI50,CCRF-CEM leukemia,< 27.6 nM
same,TGI,CCRF-CEM leukemia,356 nM
same,GI50,HL-60(TB) leukemia,< 43.1 nM
same,TGI,HL-60(TB) leukemia,129 nM
same,GI50,SR leukemia,< 31 nM
same,TGI,SR leukemia,491 nM
same,TGI,IGROV1 ovarian,425 nM
same,GI50,SK-MEL-2 melanoma,70.6 nM
same,TGI,SK-MEL-2 melanoma,10800 nM
same,TGI,OVCAR-5 ovarian,2080 nM
same,GI50,DU-145 prostate,73.7 nM
same,TGI,DU-145 prostate,4800 nM
same,GI50,HCC-2998 colon,< 50.1 nM
same,TGI,HCC-2998 colon,1470 nM
same,GI50,SN12C renal,60.7 nM
same,TGI,SN12C renal,4120 nM
same,GI50,NCI-H460 lung,187 nM
same,TGI,NCI-H460 lung,1220 nM
same,GI50,KM12 colon,77.2 nM
same,TGI,KM12 colon,1790 nM
same,GI50,SF-539 CNS,57.3 nM
same,TGI,SF-539 CNS,263 nM
same,GI50,HS 578T breast,1160 nM
same,TGI,HS 578T breast,6870 nM
same,TGI,SF-295 CNS,278 nM
same,GI50,SF-268 CNS,47 nM
same,TGI,SF-268 CNS,1620 nM
same,GI50,HT29 colon,< 40.7 nM
same,TGI,HT29 colon,1650 nM
same,GI50,UACC-62 melanoma,79.4 nM
same,TGI,UACC-62 melanoma,375 nM
same,GI50,UO-31 renal,< 44.7 nM
same,TGI,UO-31 renal,322 nM
same,TGI,PC-3 prostate,2320 nM
same,GI50,SK-MEL-5 melanoma,82.7 nM
same,TGI,SK-MEL-5 melanoma,1270 nM
same,TGI,SW-620 colon,1980 nM
same,GI50,A498 renal,134 nM
same,TGI,A498 renal,3680 nM
same,TGI,CAKI-1 renal,261 nM
same,GI50,786-0 renal,105 nM
same,TGI,786-0 renal,1270 nM
same,GI50,COLO 205 colon,< 20.1 nM
same,TGI,COLO 205 colon,1170 nM
same,GI50,MCF7 breast,86.6 nM
same,TGI,MCF7 breast,1160 nM
same,GI50,HCT-116 colon,< 49.7 nM
same,TGI,HCT-116 colon,1360 nM
same,GI50,ACHN renal,< 42.4 nM
same,TGI,ACHN renal,1140 nM
same,GI50,UACC-257 melanoma,81.8 nM
same,TGI,UACC-257 melanoma,312 nM
same,GI50,NCI-H23 lung,139 nM
same,TGI,NCI-H23 lung,10200 nM
same,GI50,SNB-19 CNS,145 nM
same,TGI,SNB-19 CNS,13700 nM
same,GI50,RPMI-8226 leukemia,79 nM
same,TGI,RPMI-8226 leukemia,1960 nM
same,GI50,SK-MEL-28 melanoma,135 nM
same,TGI,SK-MEL-28 melanoma,1770 nM
same,GI50,OVCAR-4 ovarian,30.3 nM
same,TGI,OVCAR-4 ovarian,367 nM
same,GI50,NCI-H226 lung,36.6 nM
same,TGI,NCI-H226 lung,1050 nM
